Here are results for 13 compounds from patent US20250059205A1, “Heterocyclic Compounds and Methods of Use” (AMGEN INC., priority 2021, published 2025).

Assay [1] relates to Phosphorylation of ERK1/2 in AsPC-1 cells. Nature of the assay: Phospho-ERK1/2 MSD Assay (AsPC-1 cells). In kind it is cell-based. Conditions: Homo sapiens, ASPC1, 2 h, 2 hours treatment, read-out: p-ERK (AsPC-1 cells) IC50. On the procedure:
(§1) AsPC-1 (ATCC® CRL-1682™) cells were cultured in RPMI 1640 Medium (ThermoFisher Scientific 11875093) containing 10% fetal bovine serum (ThermoFisher Scientific 16000044) and 1× penicillin-streptomycin-glutamine (ThermoFisher Scientific 10378016). Sixteen hours prior to compound treatment, AsPC-1 cells were seeded in 96-well cell culture plates at a density of 25,000 cells/well and incubated at 37° C., 5% CO2. A compound dose-response titration was diluted in growth media, added to appropriate wells of a cell culture plate, and then incubated at 37° C., 5% CO2 for 2 hours. Following compound treatment, cells were washed with ice-cold Dulbecco's phosphate-buffered saline, no Ca^2+ or Mg^2+ (ThermoFisher Scientific 14190144), and then lysed in RIPA buffer (50 mM Tris-HCl pH 7.5, 1% Igepal, 0.5% sodium deoxycholate, 150 mM NaCl, and 0.5% sodium dodecyl sulfate) containing protease inhibitors (Roche 4693132001) and phosphatase inhibitors (Roche 4906837001). Phosphorylation of ERK1/2 in compound-treated lysates was assayed using Phospho-ERK1/2 Whole Cell Lysate kits (Meso Scale Discovery K151DWD) according to the manufacturer's protocol. Assay plates were read on a Meso Scale Discovery Sector Imager 6000, and data were analyzed using a 4-parameter logistic model to calculate IC50 values.

Assay [2] addresses His-tagged KRAS G12D protein (Homo sapiens, UniProt P01116, G12D). Nature of the assay: KRAS G12D TR-FRET Assay. In kind it is binding. On the procedure:
Compounds of interest were prepared in a dose-response titration in DMSO, and 80 nL were added via Labcyte Echo to each well of a 384-well plate (Perkin Elmer 6008280). […] The plate was incubated for 30 minutes at room temperature. Biotinylated KRPep-2d substrate (Amgen) was diluted to 20 nM in Assay Buffer and 2 μL was added to all wells and incubated for 1 h at room temperature. Detection Reagent (0.4 nM LANCE Eu-W1024 Anti-6xHis (Perkin Elmer AD0401), 5 nM streptavidin-d2 (Cisbio 610SADLA)) was prepared in Assay Buffer, then 4 μL was added to the plate and incubated for 1 h at room temperature. Plates were read using PerkinElmer EnVision (ex: 320 nm, em1: 665 nm, em2: 615 nm) and em1/em2 data was used to generate curve fits using a 4-parameter logistic model to calculate IC50 values.
(In general: In TR-FRET formats the signal depends on donor and acceptor labels being close together.)

For assay [3], the system named is Phosphorylation of ERK1/2 in A-427 cells. Nature of the assay: Phospho-ERK1/2 MSD Assay (A-427 cells). In kind it is cell-based. The note with it: Homo sapiens, A-427, 2 h, 2 h treatment, read-out: p-ERK (A427 cells) IC50. The protocol:
as §1, with “A-427” for “AsPC-1”, “HTB-53™)” for “CRL-1682™)”, “h.” for “hours.”

The target of assay [4] is GDP-bound KRAS protein (aa 1-169), containing both G12D and C118A amino acid substitutions (Homo sapiens, UniProt P01116, C118A/G12D). Kind of assay: KRAS G12D Coupled Nucleotide Exchange Assay. Format: biochemical. Conditions: 2 h compound pre-incubation. The protocol:
Following compound pre-incubation, purified SOS protein (aa 564-1049) and GTP (Roche 10106399001) were added to the assay wells and incubated for an additional 30 min. […] The assay plates were then read on a PerkinElmer EnVision Multilabel Reader, using AlphaScreen® technology, and data were analyzed using a 4-parameter logistic model to calculate IC50 values.

GDP-bound KRAS protein (aa 1-169), containing both G12D and C118A amino acid substitutions, sequence (P01116 1-169 isoform P01116-2 G12D/C118A): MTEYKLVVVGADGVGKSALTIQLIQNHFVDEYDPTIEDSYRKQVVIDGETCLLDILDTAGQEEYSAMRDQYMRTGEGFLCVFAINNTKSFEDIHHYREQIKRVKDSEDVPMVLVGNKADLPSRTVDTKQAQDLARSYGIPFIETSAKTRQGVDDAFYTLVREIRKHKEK
His-tagged KRAS G12D protein, sequence (P01116 1-188 isoform P01116-2 G12D): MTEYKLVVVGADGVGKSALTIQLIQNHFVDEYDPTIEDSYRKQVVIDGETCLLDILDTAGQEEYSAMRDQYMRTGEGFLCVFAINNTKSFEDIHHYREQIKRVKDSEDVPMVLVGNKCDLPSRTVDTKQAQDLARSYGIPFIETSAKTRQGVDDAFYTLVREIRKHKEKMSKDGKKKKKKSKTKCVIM

The term IC50 denotes the concentration needed to halve the response being measured. For `CCc1cccc2cc(O)cc(-c3c(Cl)cc4c(N5C[C@@H]6CC[C@H]5CN6)nc(OC[C@@]56CCCN5C[C@H](F)C6)nc4c3F)c12` [Example 130, 4-(4-((1S,4S)-2,5-diazabicyclo[2.2.2]octan-2-yl)-6-chloro-8-fluoro-2-(((2R,7aS)-2-fluorotetrahydro-1H-pyrrolizin-7a(5H)-yl)methoxy)quinazolin-7-yl)-5-ethylnaphthalen-2-ol], the 50% inhibitory concentration (IC50) stood at 102 nM in assay [1], 3 nM in assay [2] and 52 nM in assay [3]. The “Avg 2 h Coupled Exchange IC50” value in assay [4] is 5 nM.

As to `CCc1c(F)ccc2cc(O)cc(-c3c(F)cc4c(N5C[C@H]6CC[C@@H](C5)N6)nc(OCC(O)(CC)CC)nc4c3F)c12` [Example 123, 4-(4-((1R,5S)-3,8-diazabicyclo[3.2.1]octan-3-yl)-2-(2-ethyl-2-hydroxybutoxy)-6,8-difluoroquinazolin-7-yl)-5-ethyl-6-fluoronaphthalen-2-ol], the half-inhibitory concentration (IC50) in assay [1] came to 2240 nM; in assay [2], 12 nM; in assay [3], 1990 nM. Further, the “Avg 2 h Coupled Exchange IC50” value in assay [4] is 12 nM.

As for `C#Cc1cccc2cc(O)cc(-c3c(F)cc4c(N5C[C@H]6CC[C@@H](C5)N6)nc(OC[C@@]56CCCN5C[C@H](F)C6)nc4c3F)c12` [Example 190, 4-(4-((1R,5S)-3,8-diazabicyclo[3.2.1]octan-3-yl)-6,8-difluoro-2-(((2R,7aS)-2-fluorotetrahydro-1H-pyrrolizin-7a(5H)-yl)methoxy)quinazolin-7-yl)-5-ethynylnaphthalen-2-ol], the values for the half-maximal inhibitory concentration (IC50) in assay [1], in assay [2] and in assay [3] were 4 nM, 4 nM and 1 nM, respectively. Further, in assay [4], the “Avg 2 h Coupled Exchange IC50” value is 5 nM.

Consider `Oc1cc(-c2cc3nc(OC[C@@]45CCCN4C[C@H](F)C5)nc(N4C[C@H]5CC[C@@H](C4)N5)c3cc2F)c2c(Cl)cccc2c1` [Example 85, 4-(4-((1R,5S)-3,8-diazabicyclo[3.2. 1]octan-3-yl)-6-fluoro-2-(((2R,7aS)-2-fluorotetrahydro-1H-pyrrolizin-7a(5H)-yl)methoxy)quinazolin-7-yl)-5-chloronaphthalen-2-ol], for which the figures for the IC50 in assay [1], in assay [2] and in assay [3] were 273 nM, 4 nM and 64 nM, respectively. The “Avg 2 h Coupled Exchange IC50” value in assay [4] was 1 nM.

Take `CCc1c(F)ccc2cc(O)cc(-c3c(F)cc4c(N5C[C@H]6CCC[C@@H](C5)N6)nc(OC[C@@]56CCCN5C[C@H](F)C6)nc4c3F)c12` [Example 119, 4-(4-((1R,5S)-3,9-diazabicyclo[3.3.1]nonan-3-yl)-6,8-difluoro-2-(((2R,7aS)-2-fluorotetrahydro-1H-pyrrolizin-7a(5H)-yl)methoxy)quinazolin-7-yl)-5-ethyl-6-fluoronaphthalen-2-ol]: the IC50 in assay [1] was found to be 276 nM; in assay [2], 5 nM; in assay [3], 156 nM. Also, the “Avg 2 h Coupled Exchange IC50” value in assay [4] stood at 4 nM.

As to `Fc1c(-c2c(Cl)ccc3[nH]ncc23)ccc2c(N3C[C@H]4CC[C@@H](C3)N4)nc(OC[C@@]34CCCN3C[C@H](F)C4)nc12` [Example 196, 4-((1R,5S)-3,8-diazabicyclo[3.2.1]octan-3-yl)-7-(5-chloro-1H-indazol-4-yl)-8-fluoro-2-(((2R,7aS)-2-fluorotetrahydro-1H-pyrrolizin-7a(5H)-yl)methoxy) quinazoline], the 50% inhibitory concentration (IC50) in assay [1] was determined as 2310 nM; in assay [2] it was 37 nM; in assay [3], 1360 nM. The “Avg 2 h Coupled Exchange IC50” value in assay [4] was found to be 20 nM.

On to `CCc1c(F)ccc2cc(O)cc(-c3ccc4c(N5C[C@H]6COC[C@@H](C5)N6)nc(OC[C@@]56CCCN5C[C@H](F)C6)nc4c3F)c12` [Example 138, 4-(4-((1R,5S)-3-oxa-7,9-diazabicyclo[3.3.1]nonan-7-yl)-8-fluoro-2-(((2R,7aS)-2-fluorotetrahydro-1H-pyrrolizin-7a(5H)-yl)methoxy)quinazolin-7-yl)-5-ethyl-6-fluoronaphthalen-2-ol], for which the values for the IC50 in assay [1], in assay [2] and in assay [3] were 216 nM, 3 nM and 72 nM, respectively. The “Avg 2 h Coupled Exchange IC50” value in assay [4] is 4 nM.

Take `Oc1cc(-c2c(F)cc3c(N4C[C@H]5CC[C@@H](C4)N5)nc(OC[C@@]45CCCN4C[C@H](F)C5)nc3c2F)c2c(F)c(F)ccc2c1` [Example 84, 4-(4-((1R,5S)-3,8-diazabicyclo[3.2. 1]octan-3-yl)-6,8-difluoro-2-(((2R,7aS)-2-fluorotetrahydro-1H-pyrrolizin-7a(5H)-yl)methoxy)quinazolin-7-yl)-5,6-difluoronaphthalen-2-ol]: the figures for the concentration for half-maximal inhibition (IC50) in assay [1], in assay [2] and in assay [3] were 22 nM, 4 nM and 5 nM, respectively. Moreover, in assay [4], the “Avg 2 h Coupled Exchange IC50” value came out at 4 nM.

For `Oc1cc(-c2c(F)cc3c(N4[C@@H]5CC[C@H]4CNC5)nc(OC[C@@]45CCCN4C[C@H](F)C5)nc3c2F)c2ccccc2c1` [Example 12, 4-(4-((1R,5S)-3,8-diazabicyclo[3.2. 1]octan-8-yl)-6,8-difluoro-2-(((2R,7aS)-2-fluorotetrahydro-1H-pyrrolizin-7a(5H)-yl)methoxy)quinazolin-7-yl)naphthalen-2-ol], the IC50 was 293 nM in assay [1] and 90 nM in assay [3].

On to `Oc1cc(-c2c(F)cc3c(N4C[C@H]5CC[C@@H](C4)N5)nc(OC[C@@]45CCCN4C[C@H](F)C5)nc3c2F)c2ccccc2c1` [Example 47, 4-(4-((1R,5S)-3,8-diazabicyclo[3.2. 1]octan-3-yl)-6,8-difluoro-2-(((2R,7aS)-2-fluorotetrahydro-1H-pyrrolizin-7a(5H)-yl)methoxy)quinazolin-7-yl)naphthalen-2-ol], for which the half-maximal inhibitory concentration (IC50) in assay [3] stood at 11 nM.

`CCc1c(F)ccc2cc(O)cc(-c3c(F)cc4c(N5C[C@H]6CC[C@@H](C5)N6)nc(OCC5(C)CCC(=O)N5)nc4c3F)c12` (stereo partly drawn) [Example 216, 5-(((4-((1R,5S)-3,8-diazabicyclo[3.2.1]octan-3-yl)-7-(8-ethyl-7-fluoro-3-hydroxynaphthalen-1-yl)-6,8-difluoroquinazolin-2-yl)oxy)methyl)-5-methylpyrrolidin-2-one]: the half-inhibitory concentration (IC50) turned out to be 834 nM in assay [1] and 5 nM in assay [2]. In assay [4], the “Avg 2 h Coupled Exchange IC50” value amounted to 9 nM.

As to `CCc1c(F)ccc2cc(O)cc(-c3ccc4c(N5C[C@H]6CC[C@@](F)(C5)N6)nc(OC[C@@]56CCCN5C[C@H](F)C6)nc4c3F)c12` [Example 179, 5-ethyl-6-fluoro-4-(8-fluoro-4-((1R,5R)-1-fluoro-3,8-diazabicyclo[3.2.1]octan-3-yl)-2-(((2R,7aS)-2-fluorotetrahydro-1H-pyrrolizin-7a(5H)-yl)methoxy)quinazolin-7-yl)naphthalen-2-ol], the IC50 in assay [1] turned out to be 46 nM; in assay [2], 2 nM. In assay [4], the “Avg 2 h Coupled Exchange IC50” value worked out at 4 nM.

Turning to `Oc1cc(-c2c(F)cc3c(N4C[C@H]5CC[C@@H](C4)N5)nc(OC[C@]45CCCN4C[C@H](F)C5)nc3c2F)c2ccccc2c1` [Example 43, 4-(4-((1R,5S)-3,8-diazabicyclo[3.2. 1]octan-3-yl)-6,8-difluoro-2-(((2R,7aR)-2-fluorotetrahydro-1H-pyrrolizin-7a(5H)-yl)methoxy)quinazolin-7-yl)naphthalen-2-ol], the IC50 in assay [1] turned out to be 90 nM; in assay [3] it was 16 nM.
